Experimental data from US7964539B2, “Well treatment” (Statoil ASA, priority 2004, dated 2011).
In brackets after ≈: the same amount, converted by molar mass.

Key:
[1] = Fish toxicity (LC50 fish); conditions: in vivo
Excerpt: (§1) Organosilanes for use in the invention include, for example, organosilane hydrides, organosilane alkoxides and organosilane amines. Organosilane compounds have the advantage that they are typically oil-soluble and have the necessary reactivity with water. […] Organosilanes for use in the invention preferably have a biodegradability of at least 60%.

[2] = system: daphnia; assay: Daphnia toxicity (EC50 daphnia); format: in vivo
Excerpt: as §1

[3] = system: algae; assay: Algae toxicity (IC50 algae); format: cell-based
Excerpt: as §1

[4] = Biodegradability, tested according to OECD 306
Excerpt: as §1

Row | Compound | LC50 [1] [µg/mL] | EC50 [2] [µg/mL] | IC50 [3] [µg/mL] | biodegradability [4] [%]
1 | CCO[Si](CCCN)(OCC)OCC [DYNASYLAN AMEO, 3-amino-propyltriethoxysilane] | 934 (≈ 4220 µM) | 331 (≈ 1500 µM) | 603 (≈ 2720 µM) | 67
2 | CCO[Si](CCCNCCC[Si](OCC)(OCC)OCC)(OCC)OCC [DYNASYLAN bis-AMEO, bis(triethoxysilylpropyl)amine] | > 200 | > 200 | 125 (≈ 294 µM) | 64.5
